# Molecular target: T1, Cys12 of the KRAS 4B G12C protein (Homo sapiens, UniProt P01116, G12C)
# T1 construct: This protein contained 188 amino acids in total, including an N-terminal 6-Histidine tag; made in house; host or cells: E. coli BL21
# Test: In vitro covalent adduct formation (CAF) assay, LC-MS intact mass
# Type: binding
# Details: 10 uM compound, 60 min
# Summary of the method: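 Percent covalent modification from intact-mass LC-MS, by relative free versus adducted protein (adducts within 1 Da of expected mass). Reaction: 10 μM compound with 5 μM E. coli-expressed, GDP-exchanged KRAS 4B G12C in TBS pH 7.4, 4% DMSO, 1 h at 22° C.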
row,% CAF 10 uM @ 60 min,SMILES
1,72%,"C=CC(=O)N1[C@H](C)CN(c2nc(=O)n3c4c(c(-c5ccc(F)cc5F)c(C(F)(F)F)cc24)SC[C@@H]3CN2CC[C@H](F)C2)C[C@@H]1C (atropisomer, axis not shown) [Example 1428, (3S,10S)-7-((3S,5R)-4-acryloyl-3,5-dimethylpiperazin-1-yl)-10-(2,4-difluorophenyl)-3-(((S)-3-fluoropyrrolidin-1-yl)methyl)-9-(trifluoromethyl)-2,3-dihydro-5H-[1,4]thiazino[2,3,4-ij]quinazolin-5-one]"
2,96.3%,"C=CC(=O)N1C[C@H](C)N(c2nc(=O)n3c4c(c(-c5ccc(F)cc5F)c(C(F)(F)F)cc24)SC[C@@H]3CN2CCC3(CC2)COC3)C[C@H]1C (atropisomer, axis not shown) [Example 1315, (3S,10R)-3-((2-oxa-7-azaspiro[3.5]nonan-7-yl)methyl)-7-((2S,5R)-4-acryloyl-2,5-dimethylpiperazin-1-yl)-10-(2,4-difluorophenyl)-9-(trifluoromethyl)-2,3-dihydro-5H-[1,4]thiazino[2,3,4-ij]quinazolin-5-one]"
3,51%,"C=CC(=O)N1[C@H](C)CN(c2nc(=O)n3c4c(c(-c5cc(Cl)c(F)cc5F)c(C(F)(F)F)cc24)SC[C@@H](N2CCCC2)C3)C[C@@H]1C (atropisomer, axis not shown) [Example 1440, (3S,11S)-8-((3S,5R)-4-acryloyl-3,5-dimethylpiperazin-1-yl)-11-(5-chloro-2,4-difluorophenyl)-3-(pyrrolidin-1-yl) 10-(trifluoromethyl)-3,4-dihydro-[1,4]thiazepino[2,3,4-ij]quinazolin-6-one]"
4,86.9%,"C=CC(=O)N1[C@H](C)CN(c2nc(=O)n3c4c(c(-c5cc(Cl)c(F)cc5F)c(C(F)(F)F)cc24)SC[C@@H]3CN2CCN(C3CC3)CC2)C[C@@H]1C (atropisomer, axis not shown) [Example 1349, (3S,10S)-7-((3S,5R)-4-acryloyl-3,5-dimethylpiperazin-1-yl)-10-(5-chloro-2,4-difluorophenyl)-3-((4-cyclopropylpiperazin-1-yl)methyl)-9-(trifluoromethyl)-2,3-dihydro-5H-[1,4]thiazino[2,3,4-ij]quinazolin-5-one]"
5,88.6%,"[2H]C([2H])=C([2H])C(=O)N1[C@H](C)CN(c2nc(=O)n3c4c(c(-c5ccc(F)cc5F)c(C(F)(F)F)cc24)SC[C@@H]3COC)C[C@@H]1C (atropisomer, axis not shown) [Example 1405, (3S,10R)-7-((3S,5R)-4-(acryloyl-d3)-3,5-dimethylpiperazin-1-yl)-10-(2,4-difluorophenyl)-3-(methoxymethyl)-9-(trifluoromethyl)-2,3-dihydro-5H-[1,4]thiazino[2,3,4-ij]quinazolin-5-one]"
6,97%,"C=CC(=O)N1[C@H](C)CN(c2nc(=O)n3c4c(c(-c5cc(Br)c(F)cc5F)c(C(F)(F)F)cc24)SCC2(COC2)C3)C[C@@H]1C [Example 1452, 8′-((3S,5R)-4-acryloyl-3,5-dimethylpiperazin-1-yl)-11′-(5-bromo-2,4-difluorophenyl)-10′-(trifluoromethyl)-2′H,4′H,6′H-spiro[oxetane-3,3′-[1,4]thiazepino[2,3,4-ij]quinazolin]-6′-one]"
7,96.8%,"C=CC(=O)N1CCN(c2nc(=O)n3c4c(c(-c5ccc(F)cc5F)c(C(F)(F)F)cc24)SC[C@@H]3CN2C[C@@H]3C[C@H]2CO3)CC1 (atropisomer, axis not shown) [Example 1306, (3S,10S)-3-(((1S,4S)-2-oxa-5-azabicyclo[2.2.1]heptan-5-yl)methyl)-7-(4-acryloylpiperazin-1-yl)-10-(2,4-difluorophenyl)-9-(trifluoromethyl)-2,3-dihydro-5H-[1,4]thiazino[2,3,4-ij]quinazolin-5-one]"
8,82.2%,"C=CC(=O)N1[C@H](C)CN(c2nc(=O)n3c4c(c(-c5ccc(F)cc5F)c(C(F)(F)F)cc24)SC[C@@H]3CN(C)C)C[C@@H]1C (atropisomer, axis not shown) [Example 1324, (3S,10R)-7-((3S,5R)-4-acryloyl-3,5-dimethylpiperazin-1-yl)-10-(2,4-difluorophenyl)-3-((dimethylamino)methyl)-9-(trifluoromethyl)-2,3-dihydro-5H-[1,4]thiazino[2,3,4-ij]quinazolin-5-one]"

# Continued, molecule first:
row,SMILES,% CAF 10 uM @ 60 min
1,"C=CC(=O)N1CCN(c2nc(=O)n3c4c(c(-c5ccc(F)cc5)c(C(F)(F)F)cc24)SC[C@@H]3COCOC)CC1 [Example 1358, (S)-7-(4-acryloylpiperazin-1-yl)-10-(4-fluorophenyl)-3-((methoxymethoxy)methyl)-9-(trifluoromethyl)-2H-[1,4]thiazino[2,3,4-ij]quinazolin-5(3H)-one]",96.3%
2,"C=CC(=O)N1[C@H](C)CN(c2nc(=O)n3c4c(c(-c5cc(Cl)c(F)cc5F)c(C(F)(F)F)cc24)SC[C@@H](N2CCCC2)C3)C[C@@H]1C (atropisomer, axis not shown) [Example 1441, (3S,11R)-8-((3S,5R)-4-acryloyl-3,5-dimethylpiperazin-1-yl)-11-(5-chloro-2,4-difluorophenyl)-3-(pyrrolidin-1-yl) 10-(trifluoromethyl)-3,4-dihydro-2H,6H-[1,4]thiazepino[2,3,4-ij]quinazolin-6-one]",79%
3,"C=CC(=O)N1[C@H](C)CN(c2nc(=O)n3c4c(c(-c5cccc6cnn(C)c56)c(C(F)(F)F)cc24)SC[C@@H]3CN2CCN(C3CC3)CC2)C[C@@H]1C (atropisomer, axis not shown) [Example 1411, (3S,10R)-7-((3S,5R)-4-acryloyl-3,5-dimethylpiperazin-1-yl)-3-((4-cyclopropylpiperazin-1-yl)methyl)-10-(1-methyl-1H-indazol-7-yl)-9-(trifluoromethyl)-2,3-dihydro-5H-[1,4]thiazino[2,3,4-ij]quinazolin-5-one]",0%
4,"C=CC(=O)N1C[C@H](C)N(c2nc(=O)n3c4c(c(-c5cc(Cl)c(F)cc5F)c(C(F)(F)F)cc24)SC[C@@H]3CN2CCC3(CC2)COC3)C[C@H]1C (atropisomer, axis not shown) [Example 1312, (3S,10S)-3-((2-oxa-7-azaspiro[3.5]nonan-7-yl)methyl)-7-((2S,5R)-4-acryloyl-2,5-dimethylpiperazin-1-yl)-10-(5-chloro-2,4-difluorophenyl)-9-(trifluoromethyl)-2,3-dihydro-5H-[1,4]thiazino[2,3,4-ij]quinazolin-5-one]",72%
5,"C=CC(=O)N1CCN(c2nc(=O)n3c4c(c(-c5ccc(F)cc5)c(C(F)(F)F)cc24)SC[C@@H]3CN2CCN(C3CC3)CC2)CC1 [Example 1321, (S)-7-(4-acryloylpiperazin-1-yl)-3-((4-cyclopropylpiperazin-1-yl)methyl)-10-(4-fluorophenyl)-9-(trifluoromethyl)-2H-[1,4]thiazino[2,3,4-ij]quinazolin-5(3H)-one]",99.3%
6,"C=CC(=O)N1[C@H](C)CN(c2nc(=O)n3c4c(c(-c5cc(Cl)c(F)cc5F)c(C(F)(F)F)cc24)SCC(COC)(COC)C3)C[C@@H]1C [Example 1410, 8-((3S,5R)-4-acryloyl-3,5-dimethylpiperazin-1-yl)-11-(5-chloro-2,4-difluorophenyl)-3,3-bis(methoxymethyl)-10-(trifluoromethyl)-3,4-dihydro-2H,6H-[1,4]thiazepino[2,3,4-ij]quinazolin-6-one]",95.3%

# Same assay, conditions: 10 uM compound, 60 min incubation
row,% CAF 10 uM @ 60 min,SMILES
1,95.2%,"C=CC(=O)N1CCN(c2nc(=O)n3c4c(c(-c5ccc(F)cc5F)c(C(F)(F)F)cc24)SCC2(COC2)C3)CC1 [Example 1123, 8′-(4-acryloylpiperazin-1-yl)-11′-(2,4-difluorophenyl)-10′-(trifluoromethyl)-2′H,4′H,6′H-spiro[oxetane-3,3′-[1,4]thiazepino [2,3,4-ij]quinazolin]-6′-one]"

# Same assay, conditions: 10 μM compound, after 1 hour
row,CAF (% after 1 hour),SMILES
1,93%,"C=CC(=O)N1[C@H](C)CN(c2nc(=O)n3c4c(c(-c5ccc(F)cc5)c(C(F)(F)F)cc24)SC[C@@H](OCC(=O)N(C)C)C3)C[C@@H]1C [Example 1232, 2-(((S)-8-((3S,5R)-4-acryloyl-3,5-dimethylpiperazin-1-yl)-11-(4-fluorophenyl)-6-oxo-10-(trifluoromethyl)-3,4-dihydro-2H,6H-[1,4]thiazepino[2,3,4-ij]quinazolin-3-yl)oxy)-N,N-dimethylacetamide]"
2,94%,"C=CC(=O)N1[C@H](C)CN(c2nc(=O)n3c4c(c(-c5cc(Cl)c(F)cc5F)c(C(F)(F)F)cc24)SC[C@@H](OCCN(CC)CC)C3)C[C@@H]1C [Example 1236, (3S)-8-((3S,5R)-4-acryloyl-3,5-dimethylpiperazin-1-yl)-11-(5-chloro-2,4-difluorophenyl)-3-(2-(diethylamino)ethoxy)-10-(trifluoromethyl)-3,4-dihydro-2H,6H-[1,4]thiazepino[2,3,4-ij]quinazolin-6-one]"

# Same assay, conditions: after 60 min
row,CAF (% binding after 60 min),SMILES
1,98%,"C=CC(=O)N1CCN(c2nc(=O)n3c4c(c(-c5ccc(F)cc5)c(C(F)(F)F)cc24)SC[C@H](OCCOC)C3)CC1 [Example 1016, (R)-8-(4-acryloylpiperazin-1-yl)-11-(4-fluorophenyl)-3-(2-methoxyethoxy)-10-(trifluoromethyl)-3,4-dihydro-2H,6H-[1,4]thiazepino[2,3,4-ij]quinazolin-6-one]"
2,84%,"C=CC(=O)N1[C@H](C)CN(c2nc(=O)n3c4c(c(-c5cc(Cl)c(F)cc5F)c(C(F)(F)F)cc24)SC[C@@H](OCOC)C3)C[C@@H]1C [Example 1015, (3S)-8-((3S,5R)-4-acryloyl-3,5-dimethylpiperazin-1-yl)-11-(5-chloro-2,4-difluorophenyl)-3-(methoxymethoxy)-10-(trifluoromethyl)-3,4-dihydro-2H,6H-[1,4]thiazepino[2,3,4-ij]quinazolin-6-one]"

# Source: patent US20230107642A1 (Erasca, Inc., priority 2020, published 2023)
